Test results reported in PMC8533202, “Design of Inhibitors of the Intrinsically Disordered Protein NUPR1: Balance between Drug Affinity and Target Function” (Biomolecules, 2021).
Where “and” joins values, the source holds several entries; their conditions need not be identical. Equal values may be shown once.

Test system: NUPR1 nuclear translocation
Assay: NUPR1 nuclear translocation, immunofluorescence in MiaPaCa-2 cells
Assay type: cell-based, human
Conditions: 3 µM, 6 h (Figure 4)
Description: Cells (100000 cells/well) were seeded in 12-well plates on coverslips overnight and then treated with 3 μM concentration of each compound for […]. After fixation with 4% paraformaldehyde (Sigma-Aldrich, St. Quentin, Fallavier, France) for 15 min, cells were washed twice with 1x PBS and incubated 1 h with the following antibodies at 1:200 dilution: rabbit anti-NUPR1 primary antibody (homemade) or γH2AX primary antibody (ab26350, Abcam, Paris, France). After the washing steps, samples were incubated 1 h with secondary antibodies at 1:500 dilution (goat anti-rabbit Alexa Fluor 488, A27034, or goat anti-mouse Alexa Fluor 488, A28175, both from Thermo Fisher Scientific, Franklin, MA, USA). ProLong™ Gold Antifade Mountant with DAPI (P36931, Thermo Fisher Scientific) was used to stain the nucleus and seal the samples. Image acquisition of Alexa Fluor 488-derived fluorescence and DAPI staining was detected with an LSM 880 controlled by Zeiss Zen Black 63x lens. Co-localization analysis and measurements in both channels were performed by using the ImageJ Coloc 2 plugin (version 3.0.5).
MiaPaCa-2 cells were treated with representative ZZW-115-derived compounds (3 µM) for 6 h. […] DAPI staining was used to detect cell nuclei, and it was combined with the Alexa 488 fluorescence in the merged panel. […]

Row | Structure (SMILES) | ability to hamper NUPR1 nuclear translocation
1 | FC(F)(F)c1ccc2c(c1)N(CCCN1CCN(CCN3CCOCC3)CC1)c1ccccc1S2 [ZZW-132] | worst effect in hampering the nuclear translocation efficiency

Biological target: T1, NUPR1 (Homo sapiens, UniProt O60356)
T1 construct: made in house
T1 sequence (O60356 1-82): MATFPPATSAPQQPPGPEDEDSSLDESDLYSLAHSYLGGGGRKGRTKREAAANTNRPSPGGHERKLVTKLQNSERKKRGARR
Assay: Isothermal titration calorimetry (ITC) binding to NUPR1
Conditions: 25 °C, pH 7.0
Description: The binding of the ZZW-115-derived compounds to NUPR1 was determined as described by using a high sensitivity isothermal titration calorimeter Auto-iTC200 (MicroCal, Malvern-Panalytical, Malvern, UK). Protein samples and solutions were properly degassed. Experiments were performed with freshly prepared protein solutions at 25 °C. A solution of NUPR1 (20 μM, in sodium phosphate 20 mM, pH 7.0, 2% DMSO) in the calorimetric cell was titrated with a solution of each compound (200 μM, in sodium phosphate 20 mM pH 7.0, 2% DMSO). The inhibitors were dissolved in the same buffer used for the protein. A standard protocol was employed: 19 titrant injections with 2 μL compound solution were programmed with a time spacing of 150 s, a stirring speed of 750 rpm, and a reference power of 10 μcal/s. The heat evolved after each ligand injection was calculated from the integral of the calorimetric signal. The heat due to the binding reaction was obtained as the difference between the reaction heat and the corresponding heat of injection, the latter estimated as a constant value throughout the experiment, and included as an adjustable parameter in the analysis. Control experiments (with the compounds injected into the buffer) were performed under the same experimental conditions.
The association constant (Ka), the enthalpy change (ΔH) and the stoichiometry (n) of the binding reaction were obtained through nonlinear regression analysis of experimental data to a model assuming a single ligand binding site for the protein. Experiments were performed in replicate and data were analyzed using in-house-developed software implemented in Origin 7 (OriginLab).
The interaction between ZZW-115-Derived compounds and NUPR1 was studied by using ITC, the gold-standard technique in binding-affinity determination, to test our theoretical prediction. […] From the thermogram (thermal power as a function of time), the binding isotherm (ligand-normalized heat as a function of the molar ratio) was obtained through integration of the individual heat effect associated with injection of each ligand solution (Figure 3). We used a nonlinear least-squares regression analysis employing a model that considered a single binding site in NUPR1 to estimate binding parameters such as the dissociation constant and the binding enthalpy.

Row | Structure (SMILES) | N (stoichiometry) | ΔG | ΔH | −TΔS
2 | CCN(CC)CCN1CCN(CCCN2c3ccccc3Sc3ccc(C(F)(F)F)cc32)CC1 [ZZW-129] | 1.2 ± 0.1 | −7.5 ± 0.1 kcal mol^–1 | −0.7 ± 0.4 kcal mol^–1 | −6.8 ± 0.4 kcal mol^–1
3 | FC(F)(F)c1ccc2c(c1)N(CCCN1CCN(CCN3CCOCC3)CC1)c1ccccc1S2 [ZZW-132] | 1.2 ± 0.1 | −7.9 ± 0.1 kcal mol^–1 | 0.3 ± 0.3 kcal mol^–1 | −8.2 ± 0.3 kcal mol^–1

Same assay, conditions: 25 °C, sodium phosphate 20 mM, pH 7.0, 2% DMSO

Row | Structure (SMILES) | Ka
4 | CCN(CC)CCN1CCN(CCCN2c3ccccc3Sc3ccc(C(F)(F)F)cc32)CC1 [ZZW-129] | 3.1 ± 0.3 M^–1 × 10^5
5 | FC(F)(F)c1ccc2c(c1)N(CCCN1CCN(CCN3CCOCC3)CC1)c1ccccc1S2 [ZZW-132] | 5.8 ± 0.4 M^–1 × 10^5

Same assay, conditions: 25 °C, sodium phosphate 20 mM, pH 7.0, 2% DMSO, read-out: Kd (=1/Ka)

Row | Structure (SMILES) | Kd
6 | CCN(CC)CCN1CCN(CCCN2c3ccccc3Sc3ccc(C(F)(F)F)cc32)CC1 [ZZW-129] | 3.2 ± 0.3 µM
7 | FC(F)(F)c1ccc2c(c1)N(CCCN1CCN(CCN3CCOCC3)CC1)c1ccccc1S2 [ZZW-132] | ~1.7 µM and 1.7 µM

Test system: MiaPaCa-2 cells
Assay: Cell viability assay (PrestoBlue)
Assay type: cell-based, human
Conditions: Homo sapiens, MIA PaCa-2, 72 h, MiaPaCa-2, 72 h
Description: (§1) Cell viability was evaluated in ten pancreatic cancer cell lines, including MiaPaCa-2, and nine primary pancreatic cancer-derived cell lines: PDAC001T, PDAC012T, PDAC021T, PDAC081T, PDAC082T, PDAC087T, PDAC088T, PDAC089T, and PDAC115T. MiaPaCa-2 cells were obtained from ATCC (Manassas, VA, USA) and maintained in DMEM (Invitrogen, Cergy-Pontoise, France), supplemented with 10% […] at 37 °C with 5% CO2. The primary pancreatic cancer-derived cells were cultured in serum free ductal media (SFDM) following a procedure adapted from those previously described, without antibiotic, and incubated at 37 °C in a 5% CO2 incubator. Cells were plated in 96-well plates (5000 cells/well) overnight. Then, the media were supplemented with the compounds to be tested at 0–100 µM concentration, and the samples were incubated for another additional 72 h before performing the measurement. Cell viability was estimated after addition of PrestoBlue™ reagent (Life Technologies, Paris, France) for 3 h according to the PrestoBlue™ cell viability reagent protocol provided by the supplier. Cell viability was normalized when comparing to untreated cell rates. Experiments were performed in triplicate and each set was repeated three times, with similar results.

Row | Structure (SMILES) | IC50
8 | CCN(CC)CCN1CCN(CCCN2c3ccccc3Sc3ccc(C(F)(F)F)cc32)CC1 [ZZW-129] | 0.33 µM
9 | FC(F)(F)c1ccc2c(c1)N(CCCN1CCN(CCN3CCOCC3)CC1)c1ccccc1S2 [ZZW-132] | ~1 µM

Same assay, conditions: MiaPaCa-2, 72 h

Row | Structure (SMILES) | IC50
10 | FC(F)(F)c1ccc2c(c1)N(CCCN1CCN(CCN3CCOCC3)CC1)c1ccccc1S2 [ZZW-132] | 1.04 µM

Test system: PDAC087T cells
Assay: Cell viability assay (PrestoBlue)
Assay type: cell-based
Conditions: Homo sapiens; PDAC087T (basal subtype), 72 h
Text: (§2) Primary pancreatic cancer cells PDAC001T, PDAC012T, PDAC021T, PDAC081T, PDAC082T, PDAC087T, PDAC088T, PDAC089T, and PDAC115T were obtained from the PaCaOmics clinical trial registered at www.clinicaltrials.gov (accessed on 2 October 2021) with registration number NCT01692873. We included PDAC samples from both echoendoscopic ultrasound-guided fine-needle (EUS-FNA) biopsies for patients with unresectable tumors and from surgical specimens for patients undergoing surgery. The tumor samples of these patients were used to generate patient-derived xenograft in nude mice as previously reported. Xenografts obtained from mice were split into several small pieces and used for cell culture in a biosafety chamber: after fine mincing, they were treated with collagenase type V (ref C9263; Sigma-Aldrich, St. Louis, MO, USA) and trypsin/EDTA (ref 25200-056; Gibco, Life Technologies, Grand Island, NY, USA) and were suspended in Dulbecco’s modified Eagle’s medium supplemented with 1% w/w penicillin/streptomycin (Gibco, Life Technologies, Paisley, UK) and 10% fetal bovine serum (Lonza Inc., Walkersville, MD, USA). After centrifugation, cells were resuspended in serum-free ductal media adapted from Schreiber et al. at 37 °C in a 5% CO2 incubator. Amplified cells were stored in liquid nitrogen as previously reported. Cells were weaned from antibiotics for ≥48 h before testing.
as §1

Row | Structure (SMILES) | IC50
11 | CCN(CC)CCN1CCN(CCCN2c3ccccc3Sc3ccc(C(F)(F)F)cc32)CC1 [ZZW-129] | 4.28 µM
12 | FC(F)(F)c1ccc2c(c1)N(CCCN1CCN(CCN3CCOCC3)CC1)c1ccccc1S2 [ZZW-132] | 16.6 µM

Test system: PDAC081T cells
Assay: Cell viability assay (PrestoBlue)
Assay type: cell-based
Conditions: Homo sapiens; PDAC081T (classical subtype), 72 h
Text: as §2, §1

Row | Structure (SMILES) | IC50
13 | CCN(CC)CCN1CCN(CCCN2c3ccccc3Sc3ccc(C(F)(F)F)cc32)CC1 [ZZW-129] | 0.86 µM
14 | FC(F)(F)c1ccc2c(c1)N(CCCN1CCN(CCN3CCOCC3)CC1)c1ccccc1S2 [ZZW-132] | 1.91 µM

Test system: PDAC088T cells
Assay: Cell viability assay (PrestoBlue)
Assay type: cell-based
Conditions: Homo sapiens; PDAC088T (classical subtype), 72 h
Text: as §2, §1

Row | Structure (SMILES) | IC50
15 | CCN(CC)CCN1CCN(CCCN2c3ccccc3Sc3ccc(C(F)(F)F)cc32)CC1 [ZZW-129] | 7.28 µM
16 | FC(F)(F)c1ccc2c(c1)N(CCCN1CCN(CCN3CCOCC3)CC1)c1ccccc1S2 [ZZW-132] | 23.6 µM

Test system: PDAC115T cells
Assay: Cell viability assay (PrestoBlue)
Assay type: cell-based
Conditions: Homo sapiens; PDAC115T (basal subtype), 72 h
Text: as §2, §1

Row | Structure (SMILES) | IC50
17 | CCN(CC)CCN1CCN(CCCN2c3ccccc3Sc3ccc(C(F)(F)F)cc32)CC1 [ZZW-129] | 2.46 µM
18 | FC(F)(F)c1ccc2c(c1)N(CCCN1CCN(CCN3CCOCC3)CC1)c1ccccc1S2 [ZZW-132] | 16.1 µM

Test system: PDAC012T cells
Assay: Cell viability assay (PrestoBlue)
Assay type: cell-based
Conditions: Homo sapiens; PDAC012T (classical subtype), 72 h
Text: as §2, §1

Row | Structure (SMILES) | IC50
19 | CCN(CC)CCN1CCN(CCCN2c3ccccc3Sc3ccc(C(F)(F)F)cc32)CC1 [ZZW-129] | 2.77 µM
20 | FC(F)(F)c1ccc2c(c1)N(CCCN1CCN(CCN3CCOCC3)CC1)c1ccccc1S2 [ZZW-132] | 12.2 µM

Test system: PDAC001T cells
Assay: Cell viability assay (PrestoBlue)
Assay type: cell-based
Conditions: Homo sapiens; PDAC001T (basal subtype), 72 h
Text: as §2, §1

Row | Structure (SMILES) | IC50
21 | CCN(CC)CCN1CCN(CCCN2c3ccccc3Sc3ccc(C(F)(F)F)cc32)CC1 [ZZW-129] | 1.94 µM
22 | FC(F)(F)c1ccc2c(c1)N(CCCN1CCN(CCN3CCOCC3)CC1)c1ccccc1S2 [ZZW-132] | 12.5 µM

Test system: PDAC021T cells
Assay: Cell viability assay (PrestoBlue)
Assay type: cell-based
Conditions: Homo sapiens; PDAC021T (basal subtype), 72 h
Text: as §2, §1

Row | Structure (SMILES) | IC50
23 | CCN(CC)CCN1CCN(CCCN2c3ccccc3Sc3ccc(C(F)(F)F)cc32)CC1 [ZZW-129] | 3.41 µM
24 | FC(F)(F)c1ccc2c(c1)N(CCCN1CCN(CCN3CCOCC3)CC1)c1ccccc1S2 [ZZW-132] | 16.5 µM

Test system: PDAC089T cells
Assay: Cell viability assay (PrestoBlue)
Assay type: cell-based
Conditions: Homo sapiens; PDAC089T (derived from a liver metastasis), 72 h
Text: as §2, §1

Row | Structure (SMILES) | IC50
25 | CCN(CC)CCN1CCN(CCCN2c3ccccc3Sc3ccc(C(F)(F)F)cc32)CC1 [ZZW-129] | 7.9 µM
26 | FC(F)(F)c1ccc2c(c1)N(CCCN1CCN(CCN3CCOCC3)CC1)c1ccccc1S2 [ZZW-132] | 29.1 µM

Test system: PDAC082T cells
Assay: Cell viability assay (PrestoBlue)
Assay type: cell-based
Conditions: Homo sapiens; PDAC082T (classical subtype), 72 h
Text: as §2, §1

Row | Structure (SMILES) | IC50
27 | CCN(CC)CCN1CCN(CCCN2c3ccccc3Sc3ccc(C(F)(F)F)cc32)CC1 [ZZW-129] | 3.56 µM
28 | FC(F)(F)c1ccc2c(c1)N(CCCN1CCN(CCN3CCOCC3)CC1)c1ccccc1S2 [ZZW-132] | 21.1 µM
